The values below come from patent US4931440A, “Uricosuric composition” (Fujisawa Pharmaceutical Company, Ltd., priority 1987, dated 1990).

A short description of data set [1]: Uricosuric action: serum uric acid level in healthy male adult volunteers. It is filed as in vivo, humans. The note with it: single oral dose 600 mg (two capsules of Example 1), N = 6. The procedure: Compound A, in a single dose of 600 mg (two capsules according to the example (1) given hereinafter), was administered orally to six humans (healthy male adult volunteers) and the serum uric acid level was determined for 48 hours after administration.

A short description of data set [2]: Acute toxicity, oral, 14 days observation. Conditions: rat, in vivo, male SD rats. The text has this:
Male SD rats (5 animals per group) were orally dosed with a suspension of the test compound in 0.5% methylcellulose solution and observed for 14 days after oral administration.

Data set [3] can be described thus: Effect on uric acid excretion in female rats (urinary uric acid assayed by HPLC). Format: in vivo, female SD rats. Conditions: p.o., urine collected 0-6 hr, dose 0: 3.07 ± 0.44. The procedure:
Female SD rats (6 weeks old) were fasted for 18 hours and submitted to the test (3 animals per group).
Compound B was suspended in 0.5% methylcellulose solution and the suspension was orally administered in a dosing volume of 5 ml/kg.
At the same time, the animals were orally loaded with 20 ml/kg of physiological saline. Urine samples were collected up to 6 hours after drug administration. The uric acid in each urine sample was assayed by HPLC.

Usually LD50 stands for the dose at which mortality reaches 50%. The low end stands for a more toxic substance, the high end for a less toxic substance. Regarding `O=C(O)Cn1c(=O)n(Cc2ccc(Br)cc2F)c(=O)c2ccc(Cl)cc21` [Compound A], the “Serum uric acid concentration, mean ± standard deviation” value turned out to be 4.5000 ± 0.6542 mg/dL in data set [1] (4 Hrs. after administration, *: significant decrease from baseline (5.5500 ± 0.9439), < 0.05); 4.0333 ± 0.6250 mg/dL in data set [1] (8 Hrs. after administration, **: significant decrease from baseline (5.5500 ± 0.9439), P < 0.01); 4.1667 ± 0.7448 mg/dL in data set [1] (12 Hrs. after administration, **: significant decrease from baseline (5.5500 ± 0.9439), P < 0.01); 4.3167 ± 0.7360 mg/dL in data set [1] (24 Hrs. after administration, *: significant decrease from baseline (5.5500 ± 0.9439), < 0.05); 4.5167 ± 0.5981 mg/dL in data set [1] (48 Hrs. after administration, *: significant decrease from baseline (5.5500 ± 0.9439), < 0.05). The molecule also showed a median lethal dose (LD50) at 336 h in data set [2] of 4250 mg/kg.
With `O=C(O)Cn1c(=O)n(Cc2ccc(Br)cc2F)c(=O)c2ccc(F)cc21` [Compound B, 2-[7-Fluoro-3-(4-bromo-2-fluorobenzyl)-1,2,3,4-tetrahydro-2,4-dioxoquinazolin-1-yl]acetic acid], the “Excretion of uric acid, mean ± S.E.” value was 3.36 ± 0.14 mg/kg in data set [3] (10 mg/kg); 4.02 ± 0.18 mg/kg in data set [3] (100 mg/kg); 4.88 ± 0.24 mg/kg in data set [3] (320 mg/kg, *: P < 0.05). The same molecule had an LD50 at 336 h in data set [2] of 2140 mg/kg.
